Source: patent publication US10018630B2, “Cancer stem cell isolation” (CHUGAI SEIYAKU KABUSHIKI KAISHA, priority 2011, dated 2018)

Tests used:
[1] = tested on: Lgr5-positive colon CSCs; assay: Cell proliferation / chemosensitivity assay (Cell Counting Kit-8); assay type: cell-based, human
Protocol: (§1) Tissues of xenograft were cut with a razor blade in order to prepare single cancer cell suspensions. After the suspensions were incubated at 37° C. for 3 hours in DPBS containing collagenase/dispase (Roche) and DNaseI (Roche), the suspensions were filtered through 40-μm Cell Strainers (BD Biosciences). The cells were suspended in the lysis buffer (BD Biosciences) to remove erythrocytes. The prepared xenograft-derived cells were cultured under 5% CO2 atmosphere at 37° C. in DMEM/F12 (Invitrogen) containing N-2 Supplement (Invitrogen), 20 ng/ml human EGF (Invitrogen), 10 ng/ml human basic fibroblast growth factor (Sigma), 4 μg/ml heparin (Sigma), 4 mg/ml BSA (Invitrogen), 20 μg/ml human insulin zinc solution (Invitrogen), and 2.9 mg/ml glucose (Sigma) (Todaro M, et al. (2007) Cell Stem Cell 1: 389-402). Adherent and floating CSCs were cultured using conventional polystyrene-treated cell culture flasks (BD Biosciences) and Ultra-low attachment cell culture flasks (Corning), respectively.
(§2) Floating and adherent cells were plated at about 100 and 1×10^4 cells/well in 96-well plates, respectively. On days 0 and 3, viable cell counts were determined by the Cell Counting Kit-8 Assay (Doujindo) according to the manufacturer's protocol. Average absorbance on day 0 was taken as 100%. For chemosensitivity assay, floating and adherent cells were plated at about 100 and 1×10^4 cells/well in 96-well plates, respectively. […] After three days of culture in the presence of the agents, the Cell Counting Kit-8 was added to the cells. The average absorbance of cells exposed to DMSO or medium alone was taken as 100%. All experiments were performed in triplicate.

[2] = tested on: Lgr5-negative colon CSCs; assay: as above; assay type: cell-based, human; conditions: for proliferation and survival of Lgr5-negative colon CSCs: 10 μg/ml, three days; for resistance of Lgr5-negative CSCs (percentage of viable cells relative to non-treated control): PLR59 and PLR123, cultured three days at each concentration (FIG. 45)
Protocol: as §1, §2

[3] = tested on: Lgr5-positive colon CSCs; assay: Transition of Lgr5-positive colon CSCs to the Lgr5-negative state after drug exposure (flow cytometry, immunostaining, qPCR); assay type: cell-based, human; conditions: for Lgr5 state of drug-resistant cells: three-day exposure of Lgr5-positive colon CSCs; for Lgr5 expression by IHC (antibody 2L36): adherent condition, 24 hours with drug, then 48 hours without drug
Protocol: Colon CSCs were incubated with mouse anti-human Lgr5 antibody (2T15E-2) and then with […] rat anti-mouse IgG antibody (Invitrogen) to stain Lgr5. The aldehyde dehydrogenase activity was measured using the AldeFluor Kit (Stemcell Technologies). Mouse cells were discriminated from human colon CSCs by staining with anti-mouse MHC class I antibody (Abcam), and PE- or APC-labeled goat […] antibody (BioLegend). Dead cells were also removed using the 7-AAD Viability Dye (Beckman Coulter).
Total RNAs were isolated using the RNeasy Mini Kit including DNAase treatment (Qiagen). cDNAs were synthesized using the First-Strand cDNA Synthesis Kit (SABiosciences). Quantitative real-time PCR (QRT-PCR) analysis was performed with the SYBR Green/Rox qPCR (SABiosciences) using the Mx3005P Real-Time PCR System (Stratagene). The fold induction value was calculated according to the 2-ΔΔCt method. GAPDH and ACTB were used as a reference. All experiments were performed in triplicate.
For immunofluorescent cytochemistry, cells were fixed with 4% paraformaldehyde and methanol, and incubated with a mouse anti-human E-cadherin antibody (Abcam), rabbit anti-human Snail antibody (Abcam), or rabbit anti-human β-catenin antibody (Sigma)). Then, the cells were visualized using the AlexaFluor 488-labeled goat anti-mouse IgG antibody or goat anti-rabbit IgG antibody. For immunofluorescent cytochemistry, the fixed cells and thin sections derived from paraffin blocks of xenograft tumors were incubated with a mouse anti-human Lgr5 antibody (2U2E-2) or rabbit anti-human Snail antibody (Abcam), rabbit anti-human HLA-DMA antibody (Sigma), rabbit anti-TMEM173 antibody (Abcam), rabbit anti-human ZMAT3 antibody (Abcam), or rabbit anti-human GPR110 antibody (Abcam). After incubation with the primary antibody, Lgr5 protein was detected with a goat anti-mouse antibody conjugated with polymer-HRP (DAKO) and visualized with AlexaFluor 488-labeled tyramide (Invitrogen), while Snail, HLA-DMA, and TMEM173 proteins were detected with a biotinylated goat anti-rabbit antibody (VECTOR) and visualized with AlexaFluor 568-labeled streptavidin (Invitrogen). These cells and samples were also stained with DAPI (Invitrogen). ZMAT3 and GPR110 proteins were detected with a goat anti-rabbit antibody conjugated with polymer HRP (DAKO) and visualized with diaminobenzidine. The cells and samples were stained with Mayer's hematoxylin (Muto Pure Chemicals Co.).
In addition, the present inventors carried out examinations to assess whether Lgr5-negative colon CSCs undergo a transition into an Lgr5-positive state. […] On the other hand, when Lgr5-positive adherent colon CSCs were cultured in an ultra low adherent plate, the present inventors observed that some of the cells halted their growth and formed a spheroid-like structure and that the Lgr5 mRNA level was very low (FIGS. 12 and 33). The transition from the Lgr5-positive to Lgr5-negative state (and the reverse) was also confirmed by observations using a single cell in culture. […] When single Lgr5-negative cells prepared via irinotecan treatment were individually cultured in a multi-well plate in the absence of irinotecan, 19 to 43% of the cells underwent a transition into the Lgr5-positive state within four days (FIG. 47 and Table 5).
Lgr5-positive cells were incubated under an adherent condition in the presence of 5-FU or oxaliplatin for 24 hours, and then cultured in the absence of the drug for 48 hours. The cells were analyzed for the expression of Lgr5 by IHC using an anti-Lgr5 antibody (antibody 2L36). […] Next, Lgr5-negative cells sorted using MoFlo XDP cell sorter and treated with 5-FU or oxaliplatin were cultured for four days in the absence of the drug. The cells were analyzed for Lgr5 expression.

[4] = tested on: tumors derived from LGR5-positive CSCs (PLR123); assay: Irinotecan treatment of NOG mice bearing tumors derived from Lgr5-positive CSCs; assay type: in vivo
Protocol: Mice bearing tumors derived from LGR5-positive CSCs (PLR123) were treated with irinotecan, and their tumors were observed. Irinotecan or vehicle was administered to mice at days 12, 15, and 18 after tumor grafting. Scale bar represents 25 μm.
FIG. 53 Irinotecan was administered at a dose of 120 mg/kg/day to NOG mice at days 12, 15, and 18 after grafting tumors derived from LGR5-positive CSCs (PLR123). This figure is a graph showing tumor volumes in control mice administered with vehicle (closed diamond) and mice administered with irinotecan (closed square or triangle). Each value represents mean±standard deviation.
FIG. 54 is a graph showing the numbers of Lgr5-positive and HLA-DMA-positive cells in xenograft tumor tissues. Thin sections of tissues were treated with Lgr5 antibody and HLA-DMA antibody, and then the numbers of Lgr5-positive and HLA-DMA-positive cells were counted. Values represent the total numbers of cells counted for respective groups (n=3).
To probe the possibility of in vivo transition to a growth inhibitor-resistant state, irinotecan was administered at the maximum tolerated dose (MTD) (120 mg/kg) into the peritoneal cavities of NOG mice bearing tumors derived from Lgr5-positive CSCs. […] By contrast, in vehicle-treated control mice, about one third of cancer cells were positive for Lgr5 in both ductal and budding areas (FIG. 52). Both Lgr5-positive cells and HLA-DMA-positive and Lgr5-negative cells were positive for EREG, and were identified to be CSCs (FIG. 52). After irinotecan treatment, Lgr5-positive cells appeared again (FIG. 52). Furthermore, xenografts were excised from mice on day 21 after transplantation of irinotecan-treated or non-treated Lgr5-positive cells. Sections from the xenografts were double-stained with an anti-Ki67 antibody and an anti-Lgr5 antibody or an anti-HLA-DMA antibody. The result of double staining for Ki67 and Lgr5 or HLA-DMA, which is a marker for Lgr5-negative cells, also confirmed a correlation between Lgr5 expression and Ki67 staining in xenografts, similarly to the observation using in vitro cultured cells. Specifically, the Lgr5-positive cells were positive for Ki67, while the Lgr5-negative/HLA-DMA-positive cells were negative for Ki67 (FIG. 65).

[5] = 120 mg/kg into the peritoneal cavity

Cc1cc([N+](=O)[O-])ccc1NS(=O)(=O)c1cc(Cl)ccc1Cl [FH535]
proliferation of Lgr5-positive colon CSCs ([1]; 50 μM, three days of culture): significantly reduced the proliferation
proliferation of Lgr5-negative colon CSCs ([2]; 50 μM, three days of culture): had no effect on the proliferation

CCc1c2c(nc3ccc(OC(=O)N4CCC(N5CCCCC5)CC4)cc13)-c1cc3c(c(=O)n1C2)COC(=O)[C@]3(O)CC [irinotecan]
level of Lgr5 mRNA (quantitative real-time PCR) ([3]; Lgr-negative cells after irinotecan treatment (FIG. 43)): almost undetectable
fluorescence representing Lgr5 positivity ([3]; PLR123, before vs after irinotecan treatment (FIG. 42)): disappeared after the treatment
ALDH activity ([3]; after irinotecan treatment): reduced
Lgr5 state of single Lgr5-positive cells cultured individually ([3]; multi-well plate, within three days after irinotecan treatment): underwent a transition into the Lgr5-negative state
Lgr5 state of drug-resistant cells [3]: negative for Lgr5
tumor growth ([4]; 120 mg/kg (MTD) into the peritoneal cavity, days 12, 15 and 18 after grafting): inhibited almost completely
Lgr5-positive cells in tumor [4, 5]: dramatic decrease
ductal structures of tumor [4, 5]: collapsed extensively
number of Lgr5-negative and HLA-DMA-positive cells in tumor [4, 5]: increased significantly
proliferation of Lgr5-positive colon CSCs ([1]; 10 μg/ml, three days): significantly inhibited the proliferation
proliferation and survival of Lgr5-negative colon CSCs [2]: did not affect the proliferation and survival
resistance of Lgr5-negative CSCs (percentage of viable cells relative to non-treated control) [2]: fully resistant

COc1cc(O)cc(O)c1C(=O)/C=C/c1ccccc1 [cardamonin]
viable cell count ([1]; 50 μM, three days of culture, Lgr5-positive colon CSCs, relative to DMSO alone): 70%
viable cell count ([2]; 50 μM, three days of culture, Lgr5-negative colon CSCs, relative to DMSO alone): about 50%

O=C1[O][Pt]2([NH][C@@H]3CCCC[C@H]3[NH]2)[O]C1=O [oxaliplatin]
Lgr5 expression by IHC (antibody 2L36) [3]: most of the Lgr5-positive cells underwent transition into the Lgr5-negative state

O=c1[nH]cc(F)c(=O)[nH]1 [5-FU, fluorouracil]
Lgr5 expression by IHC (antibody 2L36) [3]: most of the Lgr5-positive cells underwent transition into the Lgr5-negative state
Lgr5 state of drug-resistant cells [3]: negative for Lgr5
proliferation of Lgr5-positive colon CSCs ([1]; 10 μg/ml, three days): significantly inhibited the proliferation
proliferation and survival of Lgr5-negative colon CSCs [2]: did not affect the proliferation and survival
resistance of Lgr5-negative CSCs (percentage of viable cells relative to non-treated control) [2]: fully resistant
